Source: patent publication US20070243221A1, “ANTI-WRINKLE COMPOSITION” (L'OREAL, priority 2006, published 2007)

System: normal human fibroblasts
Experiment: Dermo-decontracting effect: spontaneous contraction of equivalent dermis (collagen matrix seeded with normal human fibroblasts)
Assay type: cell-based
Conditions: on average over the duration of the experiment (0, 4, 8 and 24 hours), equivalent dermis surface area
Text: The principle of this test consists in studying the effect of the test product on a model of equivalent dermis consisting of a collagen matrix seeded with normal human fibroblasts.
These conditions are intended to mimic in vitro the dermal contractile phenomena that take place during facial movements. The reason for this is that, under these conditions, the cells spontaneously exert tensile forces that induce a shrinkage of the collagen gel. […] Measurement of this area makes it possible to evaluate the relaxation effects of the substances placed in contact beforehand with the equivalent dermis.
Two series of attached equivalent dermides containing normal human fibroblasts are prepared: a control series without any treatment, and a series treated with the test compound (1 μM). The experiment is repeated three times.
The dermal equivalents are prepared as described in Asselineau et al., Exp. Cell. Res., 1985, 159, 536-539; Models in dermatology, 1987, vol. 3, pp. 1-7, in the following proportions:
The treated equivalent dermis differs from the control equivalent dermis in that 1 μM of the test compound has been added thereto. […]
To do this, a digital image is acquired for each treated or untreated equivalent dermis using a camera (CCD camera—Iris Sony DXC-107P) and the surface area is then calculated on each image by means of an image analysis system (Zeiss Axiovision 3.0). […]

c1ccc(CCCNC2CCN(CCc3ccccc3)CC2)cc1 [compound 1, 1-(2-phenylethyl)-4-[N-(3-phenylpropyl)]aminopiperidine]
reduces the contraction of fibroblasts, compared with the control (tested at 1 μM): 21%

CC(NC1CCN(CCc2ccccc2)CC1)c1ccccc1 (centres unmarked) [compound 5, 1-(2-phenylethyl)-4-[N-(1-phenylethyl)]aminopiperidine]
reduces the contraction of fibroblasts, compared with the control (tested at 10 μM): 40%
